Entries after “also recorded” stand apart in the source; their conditions may differ.
Assays:
[1] = system: rats; assay: Calcemic activity in rats in vivo; parameters: species or system rat; conditions: for Calc. rel.: calcemic activity in rats relative to 1,25(OH)2D3, >1 = more active
Source text: Generally, the classical effects of 1,25(OH)2D3 on the calcium balance in the organism, including calcemic and calciuric activities, are unwanted in the vitamin D analogues of the present invention, in which selectivity for e.g. inhibition of the proliferation of certain cells, absence of calcemic effects and skin irritation is desired.

[2] = system: HaCaT human skin keratinocyte cell line; assay: HaCaT antiproliferative assay measuring 3H-thymidine uptake; assay type: cell-based; conditions: for HaCaT rel.: relative to 1,25(OH)2D3, ratio IC50 of 1,25(OH)2D3 / IC50 of compound, 3H-thymidine incorporation, >1 = more active
Source text: An assay for the rating of test compounds for antiproliterative activity in skin cells, e.g. antipsoriatic effect, is the in vitro assay using HaCaT, a spontaneously immortalised, non-tumorigenic human skin keratinocyte cell line (Mørk Hansen, C. et al., J. Invest. Dermatol 1, 44-48 (1996)), measuring ^3H -thymidine uptake.

[3] = system: hairless guinea pigs; assay: Skin irritation, occlusive patch test in hairless guinea pigs; assay type: in vivo, guinea pig; parameters: key to Skin irritation score: 0: Substances of no irritation; +: Substances of doubtful or very low irritancy compared to calcitriol; ++: Substances of low irritancy compared to calcitriol; +++: Substances with irritances in the same range as calcitriol; ++++: Substances of more irritancy than calcitriol; +++++: Very irritative substances compared to calcftriol; conditions: for Skin irritation score: occlusive patch 48 hours, 500, 50 and 5 μg/ml, clinical grading, LDPI, erythema
Experimental: Skin irritation was assessed in hairless guinea pigs. Randomised occlusive patch testing for 48 hours was used. Each analogue was tested at three dose levels (500 μg/ml, 50 μg/ml, and 5 μg/ml) and a placebo solution was also included. Assessment of skin irritation was blinded and based upon clinical grading and objective measurement of cutaneous blood flow (laser Doppler perfusion imaging, LDPI) and erythema (Minolta ChromaMeter). Furthermore, epidermal thickness as an indication of epidermal hyperplasia was measured.
The irritancy scores were as defined below:
0 Substances of no irritation
+ Substances of doubtful or very low irritancy compared to calcitriol
++ Substances of low irritancy compared to calcitriol
+++ Substances with irritances in the same range as calcitriol
++++ Substances of more irritancy than calcitriol
+++++ Very irritative substances compared to calcftriol

[4] = target: T1, vitamin D receptor (Homo sapiens, UniProt P11473); assay: Binding to the vitamin D receptor in vitro, relative to Calcitriol; conditions: relative to 1,25(OH)2D3; ratio IC50 of 1,25(OH)2D3 / IC50 of compound; >1 = more active
T1 sequence (P11473 1-427): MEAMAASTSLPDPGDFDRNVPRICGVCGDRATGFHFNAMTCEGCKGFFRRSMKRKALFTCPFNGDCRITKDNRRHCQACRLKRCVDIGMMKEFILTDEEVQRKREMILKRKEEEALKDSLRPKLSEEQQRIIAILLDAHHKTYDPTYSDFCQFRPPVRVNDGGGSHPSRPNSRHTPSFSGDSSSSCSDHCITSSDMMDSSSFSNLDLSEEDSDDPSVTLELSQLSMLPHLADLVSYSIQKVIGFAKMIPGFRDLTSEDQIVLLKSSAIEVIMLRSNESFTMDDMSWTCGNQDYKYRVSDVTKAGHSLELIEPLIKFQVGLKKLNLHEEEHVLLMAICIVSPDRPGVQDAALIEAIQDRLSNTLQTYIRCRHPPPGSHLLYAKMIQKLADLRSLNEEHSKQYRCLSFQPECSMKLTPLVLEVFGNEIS

SMILES	Calc. rel. [1]	HaCaT rel. [2]	Skin irritation score [3]	calcemic activity (in words) ([1]; rats in vivo, compared with prior art compounds)	antiproliferative activity in skin cells (in words) ([2]; HaCaT, compared with Calcitriol / 1,25(OH)2D3)	skin irritation (in words) ([3]; compared with prior art compounds)	Receptor binding rel. [4]
C=C1/C(=C\C=C2/CCC[C@]3(C)[C@@H]([C@H](C)/C=C/[C@@H](O)C4CC4)CC[C@@H]23)C[C@@H](O)C[C@@H]1O [Calcipotriol, reference compound]	0.005	2	+++	–	–	–	–
C=C1/C(=C\C=C2/CCC[C@]3(C)[C@@H]([C@H](C)CCCC(C)(C)O)CC[C@@H]23)C[C@@H](O)C[C@@H]1O [Calcitriol, 1α,25-dihydroxy-vitamin D3, reference compound]	1	1	+++	–	–	–	–
C=C1C(=CC=C2CCCC3(C)C2CCC3C(C)COCc2cccc(C(C)(C)O)c2)CC(O)CC1O [Compound 100, 1(S),3(R)-Dihydroxy-20(R)-[((3-(2-hydroxy-2-propyl)-phenyl)-methoxy)-methyl]-9,10-seco-pregna-5(Z),7(E),10(19)-triene]	0.001	1	+	very low calcemic activity; also recorded: negligible	same potency as the compound Calcitriol	considerably less skin irritation than compounds of the prior art	0.01

— patent US6537980B1, “Vitamin D analogues and their pharmaceutical use” (Leo Pharmaceutical Products Ltd., priority 1999, dated 2003)
